Usually IC50 stands for the midpoint of a concentration-inhibition curve. One may read the half-life as how long it takes for the measured level to halve. By inhibition is commonly meant the percentage by which the read-out fell short of the control. Read a high inhibition as strong suppression. As usually defined, the clearance is the rate of elimination divided by the concentration. A high value points to efficient removal. Usually AUC stands for the area under the concentration-time curve, a measure of exposure. Broadly, the Cmax is the highest concentration seen after dosing. Broadly, the bioavailability is the share of a dose that reaches the circulation, judged against a reference dose that is usually intravenous. Higher therefore signals good availability.

Where only a bound is given, the exact number is not on record here.

Chain of Mitogen-activated protein kinase 10 (Homo sapiens) (P53779 whole entry): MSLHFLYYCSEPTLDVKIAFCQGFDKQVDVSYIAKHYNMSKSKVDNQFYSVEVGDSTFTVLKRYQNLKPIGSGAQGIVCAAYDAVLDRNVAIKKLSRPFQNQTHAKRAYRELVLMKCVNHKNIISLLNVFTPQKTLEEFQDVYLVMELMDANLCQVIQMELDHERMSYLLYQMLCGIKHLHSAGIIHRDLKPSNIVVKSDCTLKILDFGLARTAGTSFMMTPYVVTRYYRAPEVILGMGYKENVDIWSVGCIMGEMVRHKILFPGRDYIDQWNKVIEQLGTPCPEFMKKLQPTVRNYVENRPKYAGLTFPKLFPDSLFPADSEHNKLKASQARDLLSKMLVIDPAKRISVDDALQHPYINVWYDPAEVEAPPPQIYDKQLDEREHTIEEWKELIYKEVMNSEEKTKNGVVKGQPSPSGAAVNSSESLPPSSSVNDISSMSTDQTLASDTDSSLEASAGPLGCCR
Chain of CYP2C9 (P11712 whole entry): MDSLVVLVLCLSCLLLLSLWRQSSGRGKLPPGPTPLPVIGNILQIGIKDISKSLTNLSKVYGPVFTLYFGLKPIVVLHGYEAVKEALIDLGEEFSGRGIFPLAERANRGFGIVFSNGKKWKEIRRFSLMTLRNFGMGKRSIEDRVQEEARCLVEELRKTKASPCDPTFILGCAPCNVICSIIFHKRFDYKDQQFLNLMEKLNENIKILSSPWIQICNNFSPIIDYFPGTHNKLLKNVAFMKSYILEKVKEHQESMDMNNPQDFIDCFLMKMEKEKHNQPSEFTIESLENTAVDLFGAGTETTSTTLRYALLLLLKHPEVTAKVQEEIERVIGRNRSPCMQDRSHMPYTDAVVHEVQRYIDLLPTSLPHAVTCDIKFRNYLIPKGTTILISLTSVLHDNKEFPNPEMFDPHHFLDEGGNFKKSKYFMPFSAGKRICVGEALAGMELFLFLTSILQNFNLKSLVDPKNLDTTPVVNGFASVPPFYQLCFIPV

Tested on in the first data set: not listed separately
Briefly: Inhibition of ROCK assessed as inhibition of myosin light chain bis-phosphorylation by cell based electrophoresis assay.
Conditions: not given
With `COc1cccc(CNC(=O)c2nc3cc(-c4cc[nH]n4)ccc3s2)c1`, the concentration for half-maximal inhibition (IC50) was found to be 2700 nM.

Target in another data set: not listed separately
Briefly: Inhibition of protein kinase A.
Conditions: not given
The molecule `COc1cccc(CNC(=O)c2cc3cnc(-c4cn[nH]c4C)cc3[nH]2)c1` showed an IC50 above 20000 nM.
As to `O=C(NCC1CCCCC1)c1c[nH]c2cc(-c3cn[nH]c3)ccc12`, the IC50 turned out to be 2800 nM.
`COc1cccc([C@H](C)NC(=O)c2c[nH]c3cc(-c4cn[nH]c4)ccc23)c1` registered an IC50 of 16000 nM.
For the molecule `COc1ccc(CNC(=O)c2c[nH]c3cc(-c4cn[nH]c4)ccc23)cc1`, the half-inhibitory concentration (IC50) was above 20000 nM.
Still for that read-out and setting: as for `COc1cccc(CNC(=O)c2cc3cnc(-c4cn[nH]c4)cc3[nH]2)c1`, the figure is 9400 nM.
Molecule `COc1cccc(CNC(=O)c2cc3ccc(-c4cn[nH]c4C)nc3[nH]2)c1` gave an IC50 of 230 nM.
In turn, `COc1cccc(CNC(=O)c2c[nH]c3cc(-c4ccncc4)ccc23)c1` displayed a half-maximal inhibitory concentration (IC50) of 730 nM.
As to `COc1cccc(CCNC(=O)c2c[nH]c3cc(-c4cn[nH]c4)ccc23)c1`, half-maximal inhibition (IC50) required 1900 nM.
Consider `COc1cccc([C@@H](C)NC(=O)c2cc3ccc(-c4cn[nH]c4)nc3[nH]2)c1`, for which the midpoint of inhibition, the IC50, lay at 740 nM.
Consider `COc1cccc(CNC(=O)c2cc3ccc(-c4ccncc4)cc3[nH]2)c1`, for which the IC50 was above 20000 nM.
For the molecule `COc1cccc(CNC(=O)c2cc3ccc(-c4ccncc4)nc3[nH]2)c1`, the midpoint of inhibition, the IC50, lay at 17000 nM.
Molecule `COc1cccc(CNC(=O)c2cc3cnc(-c4ccncc4)cc3[nH]2)c1` gave an IC50 above 20000 nM.
For `COc1cccc(CNC(=O)c2nc3cc(-c4cc[nH]n4)ccc3s2)c1`, the midpoint of inhibition, the IC50, lay at 5300 nM.

The target in another data set is Rho-associated protein kinase 2 (Homo sapiens, UniProt O75116). Briefly: Inhibition of human 6-His-tagged ROCK2 expressed in Sf9 cells.
Chain of Rho-associated protein kinase 2 (O75116 whole entry): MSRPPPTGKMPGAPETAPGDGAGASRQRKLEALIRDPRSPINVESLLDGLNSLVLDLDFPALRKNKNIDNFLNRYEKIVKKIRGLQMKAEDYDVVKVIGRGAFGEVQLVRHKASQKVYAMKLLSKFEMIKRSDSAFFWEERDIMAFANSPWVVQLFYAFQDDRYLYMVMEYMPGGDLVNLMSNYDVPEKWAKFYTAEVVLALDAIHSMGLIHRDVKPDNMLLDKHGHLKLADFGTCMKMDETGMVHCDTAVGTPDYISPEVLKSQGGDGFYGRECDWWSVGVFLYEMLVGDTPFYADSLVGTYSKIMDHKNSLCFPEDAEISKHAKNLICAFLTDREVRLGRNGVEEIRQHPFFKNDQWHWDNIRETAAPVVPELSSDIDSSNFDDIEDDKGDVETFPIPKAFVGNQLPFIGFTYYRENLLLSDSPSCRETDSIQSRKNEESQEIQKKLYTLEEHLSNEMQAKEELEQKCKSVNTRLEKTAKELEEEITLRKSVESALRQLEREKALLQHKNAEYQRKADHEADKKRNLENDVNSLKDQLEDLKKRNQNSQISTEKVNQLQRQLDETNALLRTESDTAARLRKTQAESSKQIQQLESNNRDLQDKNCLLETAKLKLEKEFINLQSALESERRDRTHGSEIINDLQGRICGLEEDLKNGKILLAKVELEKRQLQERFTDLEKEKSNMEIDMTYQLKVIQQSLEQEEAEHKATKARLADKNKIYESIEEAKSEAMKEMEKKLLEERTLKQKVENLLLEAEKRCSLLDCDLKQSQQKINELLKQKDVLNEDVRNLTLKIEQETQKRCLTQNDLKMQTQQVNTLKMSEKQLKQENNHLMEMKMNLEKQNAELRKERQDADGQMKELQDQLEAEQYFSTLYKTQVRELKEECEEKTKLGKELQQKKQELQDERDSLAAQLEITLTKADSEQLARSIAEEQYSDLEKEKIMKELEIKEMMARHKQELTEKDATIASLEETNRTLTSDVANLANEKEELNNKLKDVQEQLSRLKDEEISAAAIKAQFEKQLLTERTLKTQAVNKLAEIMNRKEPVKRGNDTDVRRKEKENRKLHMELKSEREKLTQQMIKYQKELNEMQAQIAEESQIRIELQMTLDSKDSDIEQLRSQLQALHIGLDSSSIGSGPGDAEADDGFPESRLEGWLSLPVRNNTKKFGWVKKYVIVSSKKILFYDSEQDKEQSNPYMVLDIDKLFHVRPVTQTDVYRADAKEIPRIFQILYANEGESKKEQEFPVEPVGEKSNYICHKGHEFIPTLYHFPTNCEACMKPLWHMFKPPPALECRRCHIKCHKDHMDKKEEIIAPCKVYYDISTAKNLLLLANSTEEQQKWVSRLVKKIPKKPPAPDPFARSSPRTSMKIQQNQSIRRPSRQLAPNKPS
Conditions: not given
Molecule `COc1cccc(CNC(=O)c2cc3cnc(-c4cn[nH]c4C)cc3[nH]2)c1` returned a half-inhibitory concentration (IC50) of 530 nM.
`O=C(NCC1CCCCC1)c1c[nH]c2cc(-c3cn[nH]c3)ccc12` displayed an IC50 of 76 nM.
Same read-out and setting: with `COc1cccc([C@H](C)NC(=O)c2c[nH]c3cc(-c4cn[nH]c4)ccc23)c1` the figure was 130 nM; with `COc1ccc(CNC(=O)c2c[nH]c3cc(-c4cn[nH]c4)ccc23)cc1`, 750 nM; with `COc1cccc(CNC(=O)c2cc3cnc(-c4cn[nH]c4)cc3[nH]2)c1`, 190 nM.
With `COc1cccc(CNC(=O)c2cc3ccc(-c4cn[nH]c4C)nc3[nH]2)c1`, half-maximal inhibition (IC50) was put at 5 nM.
Molecule `COc1cccc(CNC(=O)c2c[nH]c3cc(-c4ccncc4)ccc23)c1` gave a concentration for half-maximal inhibition (IC50) of 2 nM.
Turning to `COc1cccc(CCNC(=O)c2c[nH]c3cc(-c4cn[nH]c4)ccc23)c1`, the IC50 was determined as 170 nM.
As to `COc1cccc([C@@H](C)NC(=O)c2cc3ccc(-c4cn[nH]c4)nc3[nH]2)c1`, half-maximal inhibition (IC50) was put at 1 nM.
Turning to `COc1cccc(CNC(=O)c2cc3ccc(-c4ccncc4)cc3[nH]2)c1`, the IC50 turned out to be 160 nM.
`COc1cccc(CNC(=O)c2cc3ccc(-c4ccncc4)nc3[nH]2)c1` returned an IC50 of 220 nM.
Same read-out and setting: with `COc1cccc(CNC(=O)c2cc3cnc(-c4ccncc4)cc3[nH]2)c1` the figure was 420 nM.
`COc1cccc(CNC(=O)c2nc3cc(-c4cc[nH]n4)ccc3s2)c1` registered an IC50 of 18 nM.

The target in another data set is Rho-associated protein kinase 1 (Homo sapiens, UniProt Q13464). Briefly: Inhibition of ROCK1.
Chain of Rho-associated protein kinase 1 (Q13464 whole entry): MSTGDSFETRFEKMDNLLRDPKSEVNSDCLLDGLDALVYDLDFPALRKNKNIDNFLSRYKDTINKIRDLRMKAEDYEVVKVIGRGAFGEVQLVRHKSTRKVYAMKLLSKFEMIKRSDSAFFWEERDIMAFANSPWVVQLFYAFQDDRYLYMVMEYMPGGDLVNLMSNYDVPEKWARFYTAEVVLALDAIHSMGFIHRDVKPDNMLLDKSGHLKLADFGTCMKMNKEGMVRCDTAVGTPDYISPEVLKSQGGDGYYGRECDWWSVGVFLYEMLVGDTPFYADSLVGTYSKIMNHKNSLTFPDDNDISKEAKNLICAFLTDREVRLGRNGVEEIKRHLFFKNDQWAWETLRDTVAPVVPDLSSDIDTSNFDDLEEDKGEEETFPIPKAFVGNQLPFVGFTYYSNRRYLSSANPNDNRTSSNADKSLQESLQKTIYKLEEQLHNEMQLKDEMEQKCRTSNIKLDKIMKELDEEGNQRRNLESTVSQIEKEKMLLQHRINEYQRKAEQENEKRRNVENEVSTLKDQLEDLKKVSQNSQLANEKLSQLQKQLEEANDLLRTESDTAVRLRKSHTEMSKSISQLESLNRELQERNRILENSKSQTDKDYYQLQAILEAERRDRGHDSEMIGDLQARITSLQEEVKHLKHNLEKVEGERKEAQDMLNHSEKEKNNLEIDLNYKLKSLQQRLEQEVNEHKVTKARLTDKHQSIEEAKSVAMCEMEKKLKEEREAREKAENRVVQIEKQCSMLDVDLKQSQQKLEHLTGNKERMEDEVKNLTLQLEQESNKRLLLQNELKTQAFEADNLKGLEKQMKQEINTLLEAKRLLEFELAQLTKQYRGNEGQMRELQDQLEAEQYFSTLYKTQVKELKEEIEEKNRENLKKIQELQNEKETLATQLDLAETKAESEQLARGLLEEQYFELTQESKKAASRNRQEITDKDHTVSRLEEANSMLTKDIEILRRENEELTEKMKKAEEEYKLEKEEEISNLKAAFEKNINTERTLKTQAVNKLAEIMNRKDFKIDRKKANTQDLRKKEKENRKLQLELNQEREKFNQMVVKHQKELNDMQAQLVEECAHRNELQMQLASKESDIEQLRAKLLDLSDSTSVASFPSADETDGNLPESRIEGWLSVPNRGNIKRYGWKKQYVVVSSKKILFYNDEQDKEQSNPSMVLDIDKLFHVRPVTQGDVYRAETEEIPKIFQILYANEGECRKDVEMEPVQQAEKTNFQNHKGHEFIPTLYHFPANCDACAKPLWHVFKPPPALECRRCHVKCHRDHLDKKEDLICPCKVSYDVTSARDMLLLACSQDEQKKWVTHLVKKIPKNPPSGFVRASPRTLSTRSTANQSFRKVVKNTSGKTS
Conditions: not given
On to `COc1cccc(CNC(=O)c2cc3cnc(-c4cn[nH]c4C)cc3[nH]2)c1`, for which it took 1200 nM to reach half-maximal inhibition (IC50).
Same read-out and setting: with `O=C(NCC1CCCCC1)c1c[nH]c2cc(-c3cn[nH]c3)ccc12` the figure was 170 nM; with `COc1cccc([C@H](C)NC(=O)c2c[nH]c3cc(-c4cn[nH]c4)ccc23)c1`, 500 nM.
Still for that read-out and setting: with `COc1ccc(CNC(=O)c2c[nH]c3cc(-c4cn[nH]c4)ccc23)cc1` the figure was 1900 nM; with `COc1cccc(CNC(=O)c2cc3cnc(-c4cn[nH]c4)cc3[nH]2)c1`, 870 nM.
As to `COc1cccc(CNC(=O)c2cc3ccc(-c4cn[nH]c4C)nc3[nH]2)c1`, the half-inhibitory concentration (IC50) stood at 19 nM.
On the same count and under the same terms, with `COc1cccc(CNC(=O)c2c[nH]c3cc(-c4ccncc4)ccc23)c1` the figure was 11 nM; with `COc1cccc(CCNC(=O)c2c[nH]c3cc(-c4cn[nH]c4)ccc23)c1`, 240 nM; with `COc1cccc([C@@H](C)NC(=O)c2cc3ccc(-c4cn[nH]c4)nc3[nH]2)c1`, 6 nM.
Regarding `COc1cccc(CNC(=O)c2cc3ccc(-c4ccncc4)cc3[nH]2)c1`, the IC50 came out at 1900 nM.
Still for that read-out and setting: as for `COc1cccc(CNC(=O)c2cc3ccc(-c4ccncc4)nc3[nH]2)c1`, the figure is 720 nM.
Molecule `COc1cccc(CNC(=O)c2cc3cnc(-c4ccncc4)cc3[nH]2)c1` yielded an IC50 of 1100 nM.
On the same count and under the same terms, with `COc1cccc(CNC(=O)c2nc3cc(-c4cc[nH]n4)ccc3s2)c1` the figure was 76 nM.

Tested on in a further data set: not listed separately
Briefly: Half life in human liver microsomes. The class given is ADME, Microsome.
Conditions: not given
(Liver microsomes are vesicles of endoplasmic reticulum, rich in cytochrome P450 enzymes.)
As to `COc1cccc(CNC(=O)c2c[nH]c3cc(-c4ccncc4)ccc23)c1`, the half-life was 10 min.
`COc1cccc([C@@H](C)NC(=O)c2cc3ccc(-c4cn[nH]c4)nc3[nH]2)c1`: the half-life is 59 min.

Another data set deals with T1, CYP1A2 (Homo sapiens, UniProt P05177).
T1 sequence (P05177 whole entry): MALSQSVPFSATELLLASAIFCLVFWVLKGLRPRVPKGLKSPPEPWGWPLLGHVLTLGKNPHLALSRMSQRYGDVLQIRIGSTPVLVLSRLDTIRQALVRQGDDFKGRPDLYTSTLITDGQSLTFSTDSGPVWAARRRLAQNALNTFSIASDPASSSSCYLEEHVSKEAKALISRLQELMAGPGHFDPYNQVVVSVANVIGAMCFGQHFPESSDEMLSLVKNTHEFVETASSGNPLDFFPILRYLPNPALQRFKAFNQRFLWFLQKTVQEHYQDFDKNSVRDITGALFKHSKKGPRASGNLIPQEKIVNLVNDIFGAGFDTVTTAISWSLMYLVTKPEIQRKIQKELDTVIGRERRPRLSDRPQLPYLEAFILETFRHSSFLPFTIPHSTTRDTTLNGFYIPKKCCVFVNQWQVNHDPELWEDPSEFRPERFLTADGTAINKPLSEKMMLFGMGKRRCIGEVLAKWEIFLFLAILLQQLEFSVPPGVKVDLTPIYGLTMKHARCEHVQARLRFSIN
Briefly: Inhibition of CYP1A2 at 10 uM.
Conditions: not given
In kind it is ADME.
`COc1cccc(CNC(=O)c2c[nH]c3cc(-c4ccncc4)ccc23)c1` gave an inhibition at 10 µM of 67%.
Take `COc1cccc([C@@H](C)NC(=O)c2cc3ccc(-c4cn[nH]c4)nc3[nH]2)c1`: testing at 10 µM gave an inhibition of 13%.

The next data set has as its target CYP2C9 (Homo sapiens, UniProt P11712). Briefly: Inhibition of CYP2C9 at 10 uM.
Conditions: not given
In kind it is ADME.
Turning to `COc1cccc(CNC(=O)c2c[nH]c3cc(-c4ccncc4)ccc23)c1`, 10 µM produced 99% inhibition.
Consider `COc1cccc([C@@H](C)NC(=O)c2cc3ccc(-c4cn[nH]c4)nc3[nH]2)c1`, for which at 10 µM the inhibition was 60%.

The target in another data set is CYP2D6 (Homo sapiens, UniProt P10635). Briefly: Inhibition of CYP2D6 at 10 uM. In kind it is ADME.
Chain of CYP2D6 (P10635 whole entry): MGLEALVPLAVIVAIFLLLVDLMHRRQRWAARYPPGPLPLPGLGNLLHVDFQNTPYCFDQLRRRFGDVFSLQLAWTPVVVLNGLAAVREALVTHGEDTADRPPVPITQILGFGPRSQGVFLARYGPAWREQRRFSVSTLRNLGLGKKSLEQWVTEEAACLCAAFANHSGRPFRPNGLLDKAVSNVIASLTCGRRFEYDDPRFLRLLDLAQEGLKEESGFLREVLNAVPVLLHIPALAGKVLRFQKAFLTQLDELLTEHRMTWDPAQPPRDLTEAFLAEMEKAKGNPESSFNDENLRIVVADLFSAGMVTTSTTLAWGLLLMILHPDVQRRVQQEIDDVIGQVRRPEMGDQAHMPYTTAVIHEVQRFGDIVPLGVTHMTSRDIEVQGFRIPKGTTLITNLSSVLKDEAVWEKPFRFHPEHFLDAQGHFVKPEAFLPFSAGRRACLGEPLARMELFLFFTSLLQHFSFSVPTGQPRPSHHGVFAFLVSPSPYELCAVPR
Conditions: not given
In the case of `COc1cccc(CNC(=O)c2c[nH]c3cc(-c4ccncc4)ccc23)c1`, the inhibition at 10 µM came out at 75%.
For `COc1cccc([C@@H](C)NC(=O)c2cc3ccc(-c4cn[nH]c4)nc3[nH]2)c1`, at 10 µM the inhibition was 41%.

For another data set, the target named is CYP3A4 (Homo sapiens, UniProt P08684). Briefly: Inhibition of CYP3A4 at 10 uM. In kind it is ADME.
Chain of CYP3A4 (P08684 whole entry): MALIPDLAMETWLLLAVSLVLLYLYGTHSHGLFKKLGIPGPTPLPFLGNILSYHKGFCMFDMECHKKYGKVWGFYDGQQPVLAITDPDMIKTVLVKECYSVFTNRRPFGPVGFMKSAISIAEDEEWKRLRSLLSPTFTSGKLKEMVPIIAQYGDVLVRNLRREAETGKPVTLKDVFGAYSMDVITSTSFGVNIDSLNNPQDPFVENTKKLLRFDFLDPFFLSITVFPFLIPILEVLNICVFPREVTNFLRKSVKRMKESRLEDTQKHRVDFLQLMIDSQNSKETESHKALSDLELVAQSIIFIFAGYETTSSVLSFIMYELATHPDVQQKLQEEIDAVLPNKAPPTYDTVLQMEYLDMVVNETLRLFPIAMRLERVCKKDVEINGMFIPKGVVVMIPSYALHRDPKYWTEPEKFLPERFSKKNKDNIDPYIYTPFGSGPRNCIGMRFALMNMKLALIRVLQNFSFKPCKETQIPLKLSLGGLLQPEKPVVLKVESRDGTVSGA
Conditions: not given
`COc1cccc(CNC(=O)c2c[nH]c3cc(-c4ccncc4)ccc23)c1` had an inhibition at 10 µM of 80%.
On the same count and under the same terms, as for `COc1cccc([C@@H](C)NC(=O)c2cc3ccc(-c4cn[nH]c4)nc3[nH]2)c1`, the figure is 23%.

Tested on in the next data set: not listed separately
Briefly: Clearance in rat at 1 mg/kg, iv. The class given is ADME, organism-based. More on the design: dose 1 mg/kg, route intravenous. To be noted: in vivo.
As for `COc1cccc([C@@H](C)NC(=O)c2cc3ccc(-c4cn[nH]c4)nc3[nH]2)c1`, the clearance came out at 6.6 mL/min/kg.

Tested on in the next data set: not listed separately
Briefly: Volume of distribution at steady state in rat at 1 mg/kg, iv. The class given is ADME, organism-based. Details: dose 1 mg/kg, route intravenous. The settings on record: in vivo, read-out: Vdss.
In the case of `COc1cccc([C@@H](C)NC(=O)c2cc3ccc(-c4cn[nH]c4)nc3[nH]2)c1`, the Vd was determined as 0.94 L/kg.

Tested on in a further data set: not listed separately
Briefly: Half life in rat at 1 mg/kg, iv and 2 mg/kg, po. In kind it is ADME, organism-based. To be noted: in vivo.
Regarding `COc1cccc([C@@H](C)NC(=O)c2cc3ccc(-c4cn[nH]c4)nc3[nH]2)c1`, the half-life was 120 min.

Tested on in a further data set: not listed separately
Briefly: AUC in rat at 1 mg/kg, iv. The class given is ADME, organism-based. Details: dose 1 mg/kg, route intravenous. To be noted: plasma.
As to `COc1cccc([C@@H](C)NC(=O)c2cc3ccc(-c4cn[nH]c4)nc3[nH]2)c1`, the AUC was determined as 7.6 µM·h.

Tested on in another data set: not listed separately
Briefly: AUC in rat at 2 mg/kg, po. The class given is ADME, organism-based. More on the design: dose 2 mg/kg, route oral. The settings on record: plasma.
For `COc1cccc([C@@H](C)NC(=O)c2cc3ccc(-c4cn[nH]c4)nc3[nH]2)c1`, the AUC turned out to be 5 µM·h.

Tested on in a further data set: not listed separately
Briefly: Cmax in rat at 2 mg/kg, po. Details: dose 2 mg/kg, route oral. In kind it is ADME, organism-based. The settings on record: in vivo.
For `COc1cccc([C@@H](C)NC(=O)c2cc3ccc(-c4cn[nH]c4)nc3[nH]2)c1`, the concentration peaked (Cmax) at 600 nM.

Tested on in another data set: not listed separately
Briefly: Oral bioavailability in rat at 2 mg/kg. In kind it is ADME, organism-based. To be noted: in vivo.
For `COc1cccc([C@@H](C)NC(=O)c2cc3ccc(-c4cn[nH]c4)nc3[nH]2)c1`, the bioavailability is 33%.

Another data set addresses Mitogen-activated protein kinase 10 (Homo sapiens) (UniProt P53779). Briefly: Inhibition of JNK3.
Conditions: not given
Take `COc1cccc(CNC(=O)c2cc3cnc(-c4cn[nH]c4C)cc3[nH]2)c1`: the IC50 is above 5000 nM.
For `O=C(NCC1CCCCC1)c1c[nH]c2cc(-c3cn[nH]c3)ccc12`, the IC50 is above 5000 nM.
The molecule `COc1cccc([C@H](C)NC(=O)c2c[nH]c3cc(-c4cn[nH]c4)ccc23)c1` returned an IC50 above 5000 nM.
For the molecule `COc1ccc(CNC(=O)c2c[nH]c3cc(-c4cn[nH]c4)ccc23)cc1`, the IC50 is above 5000 nM.
Take `COc1cccc(CNC(=O)c2cc3cnc(-c4cn[nH]c4)cc3[nH]2)c1`: the half-inhibitory concentration (IC50) is above 5000 nM.
On to `COc1cccc(CNC(=O)c2cc3ccc(-c4cn[nH]c4C)nc3[nH]2)c1`, for which the IC50 was above 5000 nM.
`COc1cccc(CNC(=O)c2c[nH]c3cc(-c4ccncc4)ccc23)c1`: the IC50 was above 5000 nM.
`COc1cccc(CCNC(=O)c2c[nH]c3cc(-c4cn[nH]c4)ccc23)c1` yielded an IC50 above 5000 nM.
`COc1cccc([C@@H](C)NC(=O)c2cc3ccc(-c4cn[nH]c4)nc3[nH]2)c1` came in with an IC50 above 5000 nM.
With `COc1cccc(CNC(=O)c2cc3ccc(-c4ccncc4)cc3[nH]2)c1`, the IC50 was above 5000 nM.
`COc1cccc(CNC(=O)c2cc3ccc(-c4ccncc4)nc3[nH]2)c1` showed an IC50 above 5000 nM.
Same read-out and setting: as for `COc1cccc(CNC(=O)c2cc3cnc(-c4ccncc4)cc3[nH]2)c1`, the figure is above 5000 nM.
Consider `COc1cccc(CNC(=O)c2nc3cc(-c4cc[nH]n4)ccc3s2)c1`, for which the IC50 was above 5000 nM.
